For experiment [1], the target named is GDP-bound NRAS wild-type protein (Homo sapiens, UniProt P01111). The experiment in a line: Binding to NRAS by surface plasmon resonance (SPR), Single Cycle Kinetics. The note with it: for NRAS/KRAS (ratio of KD value with respect to NRAS to KD value with respect to KRAS): GDP-bound NRAS wild-type vs GDP-bound KRAS wild-type. (In general: Surface plasmon resonance follows binding to a sensor surface in real time, without labels.)

In experiment [2] the target is GDP-bound HRAS wild-type protein (Homo sapiens, UniProt P01112). In words: Binding to HRAS by surface plasmon resonance (SPR), Single Cycle Kinetics. As to conditions: for HRAS/KRAS (ratio of KD value with respect to HRAS to KD value with respect to KRAS): GDP-bound HRAS wild-type vs GDP-bound KRAS wild-type.

Structures are written as SMILES.

Sequence of GDP-bound NRAS wild-type protein (P01111 whole entry): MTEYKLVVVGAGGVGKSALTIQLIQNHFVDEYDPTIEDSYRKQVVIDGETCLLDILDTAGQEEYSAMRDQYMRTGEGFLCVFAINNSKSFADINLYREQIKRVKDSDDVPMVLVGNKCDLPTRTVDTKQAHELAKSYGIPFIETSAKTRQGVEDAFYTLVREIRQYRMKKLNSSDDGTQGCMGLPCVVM
Sequence of GDP-bound HRAS wild-type protein (P01112 whole entry): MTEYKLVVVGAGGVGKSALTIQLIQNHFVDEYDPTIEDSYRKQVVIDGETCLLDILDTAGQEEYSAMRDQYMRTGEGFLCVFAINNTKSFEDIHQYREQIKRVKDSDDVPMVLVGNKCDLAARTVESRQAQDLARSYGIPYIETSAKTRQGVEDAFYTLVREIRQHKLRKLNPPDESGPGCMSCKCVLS

Turning to `CCC[C@H]1C(=O)N[C@@H]([C@@H](C)CC)C(=O)N(C)CC(=O)N(C)[C@H]2C/C=C\CCN(C2=O)[C@@H](Cc2ccc(C)cc2)C(=O)N(C)CC(=O)N[C@@H](CCc2cc(F)c(C(F)(F)F)c(F)c2)C(=O)N2C[C@H](CC)C[C@H]2C(=O)NC2(CCCC2)C(=O)N(C)[C@@H](C2CCCC2)C(=O)N(C)[C@H](C(=O)N(C)C)CC(=O)N1C` [PP2216], the “NRAS/KRAS (ratio of KD value with respect to NRAS to KD value with respect to KRAS)” value in experiment [1] (SPR) is “A (a compound having 10 or more and less than 20 is denoted as A)”. For the same compound, in experiment [2] (SPR), the “HRAS/KRAS (ratio of KD value with respect to HRAS to KD value with respect to KRAS)” value was “A (a compound having 10 or more and less than 20 is denoted as A)”.
`CCC[C@H]1C(=O)N[C@@H]([C@@H](C)CC)C(=O)N(C)CC(=O)N(C)[C@H]2C/C=C\CCN(C2=O)[C@@H](Cc2ccc(C)cc2)C(=O)N(C)CC(=O)N[C@@H](CCc2ccc3ccn(C)c3c2)C(=O)N2C[C@H](OCC)C[C@H]2C(=O)NC2(CC(C)(C)C2)C(=O)N(C)[C@@H](C(CC)CC)C(=O)N(C)[C@H](C(=O)N(C)C)CC(=O)N1C` [PP2914]: the “NRAS/KRAS (ratio of KD value with respect to GDP-bound NRAS wild-type protein to KD value with respect to KRAS)” value in experiment [1] (class symbols) is “AA (a compound having 20 or more is denoted as AA)”. In addition, the “HRAS/KRAS (ratio of KD value with respect to GDP-bound HRAS wild-type protein to KD value with respect to KRAS)” value in experiment [2] (class symbols) was “A (a compound having 10 or more and less than 20 is denoted as A)”.
`CC[C@H](C)[C@@H]1NC(=O)[C@H](COC)N(C)C(=O)C[C@@H](C(=O)N2CCOCC2)N(C)C(=O)[C@H](C2CCCC2)N(C)C(=O)C2(CCC2)NC(=O)[C@@H]2CC(F)(F)CN2C(=O)[C@H](CCc2cc(F)c(C(F)(F)F)c(F)c2)NC(=O)CN(C)C(=O)[C@H](Cc2ccc(C(F)(F)F)cc2)N2CCCCC[C@@H](C2=O)N(C)C(=O)CN(C)C1=O` [PP0834]: the “NRAS/KRAS (ratio of KD value with respect to NRAS to KD value with respect to KRAS)” value in experiment [1] (KD ratio, SPR) was “A (a compound having 10 or more and less than 20 is denoted as A)”. Besides, the “HRAS/KRAS (ratio of KD value with respect to HRAS to KD value with respect to KRAS)” value in experiment [2] (KD ratio, SPR) was “B (a compound having 3 or more and less than 10 is denoted as B)”.
Regarding `CC[C@H](C)[C@@H]1NC(=O)[C@H](CC(C)C)N(C)C(=O)C[C@@H](C(=O)N2CCOCC2)N(C)C(=O)[C@H](C2CCCC2)N(C)C(=O)C2(CCCC2)NC(=O)[C@@H]2C[C@H](O)CN2C(=O)[C@H](CCc2cc(F)c(C(F)(F)F)c(F)c2)NC(=O)CN(C)C(=O)[C@H](Cc2ccc(C(F)(F)F)cc2)N2CCCC[C@@H](C2=O)N(C)C(=O)CN(C)C1=O` [PP0556], in experiment [1] (SPR), the “NRAS/KRAS (ratio of KD value with respect to GDP-bound NRAS wild-type protein to KD value with respect to KRAS)” value was “C (A compound having a KD ratio of 0.1 or more and less than 3 is denoted as C)”. Also, in experiment [2] (SPR), the “HRAS/KRAS (ratio of KD value with respect to GDP-bound HRAS wild-type protein to KD value with respect to KRAS)” value was “B (a compound having 3 or more and less than 10 is denoted as B)”.
On to `CC[C@H](C)[C@@H]1NC(=O)[C@H](CC)N(C)C(=O)C[C@@H](C(=O)N(C)C)N(C)C(=O)[C@H](C2CCCC2)N(C)C(=O)C2(CCC2)NC(=O)[C@H](CC2CCCCC2)N(C)C(=O)[C@H](CCc2cc(F)c(C(F)(F)F)c(F)c2)NC(=O)CN(C)C(=O)[C@H](Cc2ccc(C(F)(F)F)cc2)N2CC/C=C\C[C@@H](C2=O)N(C)C(=O)CN(C)C1=O` [PP1149], for which the “NRAS/KRAS (ratio of KD value with respect to NRAS to KD value with respect to KRAS)” value in experiment [1] (KD ratio, SPR) was “A (a compound having 10 or more and less than 20 is denoted as A)”. In addition, in experiment [2] (KD ratio, SPR), the “HRAS/KRAS (ratio of KD value with respect to HRAS to KD value with respect to KRAS)” value is “A (a compound having 10 or more and less than 20 is denoted as A)”.
On to `CCC[C@H]1C(=O)N[C@@H]([C@@H](C)CC)C(=O)N(C)CC(=O)N(C)[C@H]2C/C=C\CCN(C2=O)[C@@H](Cc2ccc(C)cc2)C(=O)N(C)CC(=O)N[C@@H](CCc2cc(F)c(C(F)(F)F)c(F)c2)C(=O)N2C[C@H](OCC)C[C@H]2C(=O)NC2(CC(C)(C)C2)C(=O)N(C)[C@@H](C(CC)CC)C(=O)N(C)[C@H](C(=O)N(C)C)CC(=O)N1C` [PP2064], for which the “NRAS/KRAS (ratio of KD value with respect to NRAS to KD value with respect to KRAS)” value in experiment [1] (SPR) is “A (a compound having 10 or more and less than 20 is denoted as A)”. In addition, the “HRAS/KRAS (ratio of KD value with respect to HRAS to KD value with respect to KRAS)” value in experiment [2] (SPR) is “A (a compound having 10 or more and less than 20 is denoted as A)”.
Regarding `CC[C@H](C)[C@@H]1NC(=O)[C@H](CC(C)C)N(C)C(=O)C[C@@H](C(=O)N2CCCCC2)N(C)C(=O)[C@H](C2CCCC2)N(C)C(=O)C2(CCCC2)NC(=O)[C@@H]2CCCN2C(=O)[C@H](CCc2cc(F)c(C(F)(F)F)c(F)c2)NC(=O)CN(C)C(=O)[C@H](Cc2ccc(C(F)(F)F)cc2)N2CCCCC[C@@H](C2=O)N(C)C(=O)CN(C)C1=O` [PP0510], the “NRAS/KRAS (ratio of KD value with respect to GDP-bound NRAS wild-type protein to KD value with respect to KRAS)” value in experiment [1] (SPR) is “B (a compound having 3 or more and less than 10 is denoted as B)”. Further, in experiment [2] (SPR), the “HRAS/KRAS (ratio of KD value with respect to GDP-bound HRAS wild-type protein to KD value with respect to KRAS)” value is “B (a compound having 3 or more and less than 10 is denoted as B)”.
Consider `CCO[C@@H]1C[C@H]2C(=O)NC3(CCC3)C(=O)N(C)[C@@H](C3CCCC3)C(=O)N(C)[C@H](C(=O)N3CCOCC3)CC(=O)N(C)[C@@H](CC(C)C)C(=O)N[C@@H]([C@@H](C)CC)C(=O)N(C)CC(=O)N(C)[C@H]3CCCCN(C3=O)[C@@H](Cc3ccc(C(F)(F)F)cc3)C(=O)N(C)CC(=O)N[C@@H](CCc3cc(F)c(C(F)(F)F)c(F)c3)C(=O)N2C1` [PP0578], for which the “NRAS/KRAS (ratio of KD value with respect to GDP-bound NRAS wild-type protein to KD value with respect to KRAS)” value in experiment [1] (SPR) was “B (a compound having 3 or more and less than 10 is denoted as B)”. The “HRAS/KRAS (ratio of KD value with respect to GDP-bound HRAS wild-type protein to KD value with respect to KRAS)” value in experiment [2] (SPR) was “B (a compound having 3 or more and less than 10 is denoted as B)”.

Values taken from patent publication US20250230193A1, “CYCLIC COMPOUND HAVING SELECTIVE KRAS INHIBITORY EFFECT ON HRAS AND NRAS” (CHUGAI SEIYAKU KABUSHIKI KAISHA, priority 2022, published 2025).
